{"source": "patent US12257237B2", "about": "(priority 2017, dated 2025)", "tested_on": "DD013 dedifferentiated liposarcoma", "assay": "Antitumour activity in DD013 dedifferentiated liposarcoma xenograft model", "assay_type": "in vivo, Athymic nude mice", "experimental": "Experiments were performed with female Athymic nude mice, 9-10 weeks old obtained from Harlan Laboratories (Udine, Italy). They were maintained under Specific Pathogen Free conditions with constant temperature and humidity, according to the institutional guidelines.\nTumour growth mice was monitored two/three times a week (depending on tumour growth rate, to avoid unnecessary stress to the animals) by Vernier caliper. Mice were sacrificed when tumour reached a mean weight of 2±0.5 gr. The antitumour activity will be expressed as T/C %, where T and C were the mean tumour weight of treated and control groups, respectively. Mice were monitored daily and weighted at least two times a week. Tolerability was evaluated on the basis of body weight loss (BWL) and clinical observation.\nStatistical analysis was performed with GraphPad Prism version 6.01 software (GraphPad software, Inc., La Jolla, CA, USA). ANOVA test was performed to evaluate if there were statistically significant differences between treated and control groups.\nBriefly, xenografts were obtained by transplanting 3-4 mm tumour fragments s.c. in the flanks of mice. The growing tumour masses were measured with the aid of a Vernier caliper, and the tumour weights (TW, 1 mm^3=1 mg) were calculated by the formula: length×(width) 2/2. When tumour load achieved about 200-400 mg, mice were randomized into the experimental groups.", "note": "Several values for one entry are separate records, joined by “and”; a condition that tells them apart may be missing. Equal values may be shown once.", "data": [{"smiles": "Cn1c(CCCCCCC(=O)NO)nc2cc(N(CCCl)CCCl)ccc21", "note": "[EDO-S101, 7-(5-(bis(2-chloroethyl)amino)-1-methyl-1H-benzo[d]imidazol-2-yl)-N-hydroxyheptanamide]", "values": [{"measurement": "DD0113 tumour weight, Mean", "setting": "EDO60: EDO-S101 60 mg/kg q7dx3, day 87 from inoculum", "result": 393.6, "unit": "mg"}, {"measurement": "DD0113 tumour weight, Mean", "setting": "EDO60: EDO-S101 60 mg/kg q7dx3, day 90 from inoculum", "result": 436.6, "unit": "mg"}, {"measurement": "DD0113 tumour weight, individual mouse", "setting": "EDO60: EDO-S101 60 mg/kg q7dx3, day 90 from inoculum, 60 mg/kg", "result": "118.4 mg and 56.3 mg and 626.5 mg and 82.7 mg and 234.7 mg and 492.6 mg and 49.6 mg"}, {"measurement": "DD0113 tumour weight, Mean", "setting": "EDO60: EDO-S101 60 mg/kg q7dx3, day 94 from inoculum", "result": 476.6, "unit": "mg"}, {"measurement": "DD0113 tumour weight, individual mouse", "setting": "EDO60: EDO-S101 60 mg/kg q7dx3, day 94 from inoculum, 60 mg/kg", "result": "135.6 mg and 73.5 mg and 693.0 mg and 95.1 mg and 279.8 mg and 598.8 mg and 43.4 mg"}, {"measurement": "DD0113 tumour weight, Mean", "setting": "EDO60: EDO-S101 60 mg/kg q7dx3, day 98 from inoculum", "result": 451.5, "unit": "mg"}, {"measurement": "DD0113 tumour weight, individual mouse", "setting": "EDO60: EDO-S101 60 mg/kg q7dx3, day 98 from inoculum, 60 mg/kg", "result": "113.6 mg and 57.9 mg and 655.0 mg and 70.1 mg and 225.1 mg and 584.9 mg and 30.7 mg"}, {"measurement": "DD0113 tumour weight, Mean", "setting": "EDO60: EDO-S101 60 mg/kg q7dx3, day 100 from inoculum", "result": 518.4, "unit": "mg"}, {"measurement": "DD0113 tumour weight, individual mouse", "setting": "EDO60: EDO-S101 60 mg/kg q7dx3, day 100 from inoculum, 60 mg/kg", "result": "122.1 mg and 86.5 mg and 751.1 mg and 87.0 mg and 297.7 mg and 718.0 mg and 40.7 mg"}, {"measurement": "DD0113 tumour weight, Mean", "setting": "EDO60: EDO-S101 60 mg/kg q7dx3, day 103 from inoculum", "result": 503.0, "unit": "mg"}, {"measurement": "DD0113 tumour weight, individual mouse", "setting": "EDO60: EDO-S101 60 mg/kg q7dx3, day 103 from inoculum, 60 mg/kg", "result": "70.5 mg and 747.9 mg and 89.6 mg and 231.0 mg and 670.9 mg and 37.5 mg"}, {"measurement": "DD0113 tumour weight, Mean", "setting": "EDO60: EDO-S101 60 mg/kg q7dx3, day 111 from inoculum", "result": 502.0, "unit": "mg"}, {"measurement": "DD0113 tumour weight, individual mouse", "setting": "EDO60: EDO-S101 60 mg/kg q7dx3, day 111 from inoculum, 60 mg/kg", "result": "90.0 mg and 45.6 mg and 813.1 mg and 62.2 mg and 245.9 mg and 686.9 mg and 33.9 mg"}, {"measurement": "DD0113 tumour weight, Mean", "setting": "EDO60: EDO-S101 60 mg/kg q7dx3, day 114 from inoculum", "result": 624.6, "unit": "mg"}, {"measurement": "DD0113 tumour weight, individual mouse", "setting": "EDO60: EDO-S101 60 mg/kg q7dx3, day 114 from inoculum, 60 mg/kg", "result": "131.7 mg and 81.4 mg and 999.4 mg and 119.1 mg and 284.3 mg and 935.9 mg and 61.0 mg"}, {"measurement": "DD0113 tumour weight, Mean", "setting": "EDO60: EDO-S101 60 mg/kg q7dx3, day 118 from inoculum", "result": 747.2, "unit": "mg"}, {"measurement": "DD0113 tumour weight, individual mouse", "setting": "EDO60: EDO-S101 60 mg/kg q7dx3, day 118 from inoculum, 60 mg/kg", "result": "157.8 mg and 79.8 mg and 1342.5 mg and 134.3 mg and 364.6 mg and 1024.5 mg and 64.1 mg"}, {"measurement": "DD0113 tumour weight, Mean", "setting": "EDO80: EDO-S101 80 mg/kg single dose, day 23 from inoculum", "result": 198.0, "unit": "mg"}, {"measurement": "DD0113 tumour weight, individual mouse", "setting": "EDO80: EDO-S101 80 mg/kg single dose, day 23 from inoculum, 80 mg/kg", "result": "361.8 mg and 272.9 mg and 241.0 mg and 225.2 mg and 191.6 mg"}, {"measurement": "DD0113 tumour weight, Mean", "setting": "EDO80: EDO-S101 80 mg/kg single dose, day 26 from inoculum", "result": 253.1, "unit": "mg"}, {"measurement": "DD0113 tumour weight, individual mouse", "setting": "EDO80: EDO-S101 80 mg/kg single dose, day 26 from inoculum, 80 mg/kg", "result": "410.2 mg and 433.7 mg and 275.2 mg and 338.5 mg and 196.8 mg"}, {"measurement": "DD0113 tumour weight, Mean", "setting": "EDO80: EDO-S101 80 mg/kg single dose, day 29 from inoculum", "result": 251.2, "unit": "mg"}, {"measurement": "DD0113 tumour weight, individual mouse", "setting": "EDO80: EDO-S101 80 mg/kg single dose, day 29 from inoculum, 80 mg/kg", "result": "399.5 mg and 447.9 mg and 310.3 mg and 335.3 mg and 179.1 mg"}, {"measurement": "DD0113 tumour weight, Mean", "setting": "EDO80: EDO-S101 80 mg/kg single dose, day 33 from inoculum", "result": 251.0, "unit": "mg"}, {"measurement": "DD0113 tumour weight, individual mouse", "setting": "EDO80: EDO-S101 80 mg/kg single dose, day 33 from inoculum, 80 mg/kg", "result": "456.2 mg and 408.9 mg and 293.6 mg and 271.4 mg and 220.9 mg"}, {"measurement": "DD0113 tumour weight, Mean", "setting": "EDO80: EDO-S101 80 mg/kg single dose, day 36 from inoculum", "result": 256.4, "unit": "mg"}, {"measurement": "DD0113 tumour weight, individual mouse", "setting": "EDO80: EDO-S101 80 mg/kg single dose, day 36 from inoculum, 80 mg/kg", "result": "466.8 mg and 431.6 mg and 284.2 mg and 280.3 mg and 194.9 mg"}, {"measurement": "DD0113 tumour weight, Mean", "setting": "EDO80: EDO-S101 80 mg/kg single dose, day 40 from inoculum", "result": 283.7, "unit": "mg"}, {"measurement": "DD0113 tumour weight, individual mouse", "setting": "EDO80: EDO-S101 80 mg/kg single dose, day 40 from inoculum, 80 mg/kg", "result": "569.1 mg and 476.7 mg and 364.0 mg and 279.7 mg and 216.2 mg"}, {"measurement": "DD0113 tumour weight, Mean", "setting": "EDO80: EDO-S101 80 mg/kg single dose, day 43 from inoculum", "result": 284.8, "unit": "mg"}, {"measurement": "DD0113 tumour weight, individual mouse", "setting": "EDO80: EDO-S101 80 mg/kg single dose, day 43 from inoculum, 80 mg/kg", "result": "500.6 mg and 547.3 mg and 355.5 mg and 255.8 mg and 227.9 mg"}, {"measurement": "DD0113 tumour weight, Mean", "setting": "EDO80: EDO-S101 80 mg/kg single dose, day 47 from inoculum", "result": 326.3, "unit": "mg"}, {"measurement": "DD0113 tumour weight, individual mouse", "setting": "EDO80: EDO-S101 80 mg/kg single dose, day 47 from inoculum, 80 mg/kg", "result": "626.2 mg and 643.5 mg and 338.2 mg and 321.9 mg and 275.0 mg"}, {"measurement": "DD0113 tumour weight, Mean", "setting": "EDO80: EDO-S101 80 mg/kg single dose, day 50 from inoculum", "result": 384.4, "unit": "mg"}, {"measurement": "DD0113 tumour weight, individual mouse", "setting": "EDO80: EDO-S101 80 mg/kg single dose, day 50 from inoculum, 80 mg/kg", "result": "686.0 mg and 716.7 mg and 447.7 mg and 447.8 mg and 297.1 mg"}, {"measurement": "DD0113 tumour weight, Mean", "setting": "EDO80: EDO-S101 80 mg/kg single dose, day 54 from inoculum", "result": 418.9, "unit": "mg"}, {"measurement": "DD0113 tumour weight, Mean", "setting": "EDO80: EDO-S101 80 mg/kg single dose, day 58 from inoculum", "result": 511.4, "unit": "mg"}, {"measurement": "DD0113 tumour weight, Mean", "setting": "EDO80: EDO-S101 80 mg/kg single dose, day 62 from inoculum", "result": 549.2, "unit": "mg"}, {"measurement": "DD0113 tumour weight, Mean", "setting": "EDO80: EDO-S101 80 mg/kg single dose, day 65 from inoculum", "result": 540.3, "unit": "mg"}, {"measurement": "DD0113 tumour weight, Mean", "setting": "EDO80: EDO-S101 80 mg/kg single dose, day 69 from inoculum", "result": 531.6, "unit": "mg"}, {"measurement": "DD0113 tumour weight, Mean", "setting": "EDO80: EDO-S101 80 mg/kg single dose, day 72 from inoculum", "result": 581.5, "unit": "mg"}, {"measurement": "DD0113 tumour weight, Mean", "setting": "EDO80: EDO-S101 80 mg/kg single dose, day 75 from inoculum", "result": 560.9, "unit": "mg"}, {"measurement": "DD0113 tumour weight, Mean", "setting": "EDO80: EDO-S101 80 mg/kg single dose, day 79 from inoculum", "result": 564.1, "unit": "mg"}, {"measurement": "DD0113 tumour weight, Mean", "setting": "EDO80: EDO-S101 80 mg/kg single dose, day 83 from inoculum", "result": 475.0, "unit": "mg"}, {"measurement": "DD0113 tumour weight, Mean", "setting": "EDO80: EDO-S101 80 mg/kg single dose, day 87 from inoculum", "result": 594.1, "unit": "mg"}, {"measurement": "DD0113 tumour weight, Mean", "setting": "EDO80: EDO-S101 80 mg/kg single dose, day 90 from inoculum", "result": 638.8, "unit": "mg"}, {"measurement": "DD0113 tumour weight, Mean", "setting": "EDO80: EDO-S101 80 mg/kg single dose, day 94 from inoculum", "result": 826.0, "unit": "mg"}, {"measurement": "DD0113 tumour weight, Mean", "setting": "EDO80: EDO-S101 80 mg/kg single dose, day 98 from inoculum", "result": 927.2, "unit": "mg"}, {"measurement": "DD0113 tumour weight, Mean", "setting": "EDO80: EDO-S101 80 mg/kg single dose, day 100 from inoculum", "result": 1209.8, "unit": "mg"}, {"measurement": "DD0113 tumour weight, Mean", "setting": "EDO80: EDO-S101 80 mg/kg single dose, day 103 from inoculum", "result": 1301.2, "unit": "mg"}]}]}
